Positions of bridges follow the written chain, without caps; N, C: chain ends. No end group written: not given here.
What was measured:
[1] = tested on: KS1767 tumors; experiment: In vivo NIR imaging of subcutaneous KS1767 tumors with RGD imaging agent; parameters: species or system mice; conditions: subcutaneous KS1767 tumors, i.v. 6 nmol/mouse, image 24 hours after injection
From the text: Cy5.5-c(KRGDf; SEQ ID NO. 3) may be used in near infrared (NIR) imaging. Mice inoculated with KS1767 were used for in vivo NIR studies. The mice were four to six week-old athymic nude mice (18-22 g, Harlan Sprague Dawley, Inc. Indianapolis, Ind.) which were housed 5 per cage and fed with sterilized pellet chow (Harlan Sprague Dawley) and sterilized water. The animals were maintained in a pathogen-free mouse colony in the Department of Veterinary Medicine at the University of Texas M.D. Anderson Cancer Center. All experiments were performed in accordance with the guidelines of the Institutional Animal Care and Use Committee.
Tumor cells for use in the animals were harvested near confluence by incubation with 0.05% trypsin-EDTA. Cells were pelleted by centrifugation at 450×g for 5 minutes and resuspended in sterile PBS. […] cells/animal were implanted subcutaneously into the chest wall or hind legs of the mice. Imaging studies were performed when tumors reached 4-6 mm in average diameter.
In vivo fluorescence imaging was accomplished by illuminating the animal with light from a laser diode (35 mW) expanded to an approximate 8 cm diameter circular area. The fluorescent light re-emitted from the animal was collected by an image intensifier (model FS9910C, ITT Night Vision, Roanoke, Va.) lens-coupled to a CCD camera (model CH350, Photometrics, Tucson, Ariz.). The imaging was designed so that the field of view could be varied from 3×3 cm to over 12×12 cm by varying the image distance of the 50 mm lens used to focus the image onto the photocathode of the intensifier. The lens was fitted with a holographic notch-plus filter (660 nm center wavelength; Kaiser Optical Systems, Inc., Ann Arbor, Mich.) and a bandpass filter (710 nm center wavelength) to reject back-scattered and reflected excitation photons. Image acquisition was accomplished using V++ software (Digital Optics, Auckland, New Zealand) and the obtained images were stored in uncompressed tagged image file format (tiff). Data processing and analysis were accomplished using Matlab software (The MathWorks, Inc., Natick, Mass.). For all imaging sessions, the image acquisition parameters were kept constant, and each image required 800 ms of camera integration.
For dynamic in vivo fluorescence imaging, mice were anesthetized with an i.p. injection of 50 mg/kg pentobarbital, and a catheter was placed in the tail vein for i.v. injection of NIR dyes. A white-light image of the animal was obtained using a low-power lamp as a white light source with holographic and interference filters removed. Fluorescence images were then acquired as a function of time following administration of Cy5.5 (6 nmol per/mouse) or Cy5.5-c(KRGDf; SEQ ID NO. 3) (6 nmol per/mouse). […]

[2] = tested on: human tumor cells; experiment: In vitro tumor cell binding study (fluorescence microscopy); assay type: cell-based; conditions: SKBr-3, HT1080, MDA-MB-435, MDA-MB-468, U87 (PC-3 and U87 for the Tyr analogue); 37° C.
Experimental: All human tumor cell-lines were obtained from American Type Culture Collection (Rockville, Md.) and were maintained at 37° C. in a humidified atmosphere containing 5% CO2 in Dulbecco's Modified Eagle's Medium/Nutrient Mixture F-12 Ham (DMEM/F12) and 10% FBS (Gibco, Grand Island, N.Y.).
Cells were seeded on cover slips in 24-well plates (Becton Dickinson Labware, Franklin Lakes, N.J.) and incubated in DMEM/F12 culture medium (0.5 ml/well) overnight. Cy5.5 and Cy5.5-HWG polypeptide imaging agents were added into each well at the indicated concentrations. For the blocking study, doxycycline was added to the culture medium followed by the addition of Cy5.5-HWG polypeptide imaging agent 1 hour later. After an incubation period of 5-60 minutes at 37° C., cells were washed twice with PBS and incubated in a solution of Sytox Green in 95% ethyl alcohol (1 μM, Molecular Probe, Eugene, Oreg.) for 15 minutes to fix and stain cell nuclei. For staining of MMP expression, cells that were pretreated with Cy5.5-HWG polypeptide and stained with Sytox Green were incubated with anti-MMP antibody (Sigma) (1 mg/ml; 1:200 dilution) for 1 hour at room temperature. The cells were then washed and incubated with Texas Red conjugated go at anti-rabbit IgG (Molecular Probe, 4 μg/ml) at room temperature for 1 hour. Cells were washed again with PBS and the cover slips were mounted for microscopic examination using a DMR microscope (Leica Microsystems, Inc., Brannockburn, Ill.). The microscope was equipped with a 75W Xenon lamp, 775 nm/845 nm, 560 nm/645 nm, and 480 nm/535 nm (Excitation/emission) filters (Chroma Technology Corp., Brattleboro, Vt.), a Hamamatsu B/W Chilled CCD camera (Hamamatsu Photonics K.K., Hamamatsu City, Japan), and Image-Pro Plus 4.5.1 software (Media Cybernetics, Silver Spring, Md.). In the multiple staining images, Cy5.5, MMPs, and Sytox Green were pseudocolored red, green, and blue, respectively.

[3] = tested on: SKBr-3 tumors; experiment: In vivo NIR fluorescent imaging with HWG imaging agent; parameters: species or system mice; conditions: 4 days after i.v. injection, 15 nmol per mouse
Experimental: Four to six week-old athymic nude mice (18-22 g, Harlan Sprague Dawley, Inc., Indianapolis, Ind.) were housed 5 per cage with sterilized pet chow (Harlan Sprague Dawley) and sterilized water. Animals were maintained in a pathogen-free mouse colony in the Department of Veterinary Medicine at the University of Texas M.D. Anderson Cancer Center. All experiments were performed in accordance with the guidelines of the Institutional Animal Care and Use Committee. Tumor cells were harvested near confluence by incubation with 0.05% trypsin-EDTA. Cells were pelleted by centrifugation at 450×g for 5 minutes and resuspended in sterile PBS. Cells (2-3×10^6/animal) were implanted subcutaneously into the chest wall or the hind legs of the mice. Human PC-3 prostate tumors were obtained by intratibia injection of PC-3 cells into male nude mice. Human U87 glioma tumors were obtained by intracranial injection.
In vivo fluorescence imaging was accomplished by illuminating the animal with light from a laser diode (785 nm, 80 mW for IGC; 660 nm, 35 mW for Cy 5.5 dyes) expanded to an approximate 8 cm diameter circular area. The re-emitted fluorescent light was collected by an image intensifier (model FS9910C, ITT Night Vision, Roanoke, Va.) lens-coupled to a CCD camera (model CH350, Photometrics, Tucson, Ariz.). The imaging was designed so that the field of view could be varied from 3×3 cm to over 12×12 cm by varying the image distance of the 50 mm lens used to focus the image onto the photocathode of the intensifier. The lens was fitted with a holographic notch-plus filter (785 nm center wavelength for ICG and 660 nm center wavelength for Cy5.5 dyes; Kaiser Optical Systems, Inc., Ann Arbor, Mich.) and a bandpass filter (830 nm center wavelength for ICG, 710 nm center wavelength for Cy5.5 dyes) to reject back-scattered and reflected excitation photons. Image acquisition was accomplished using V++ software (Digital Optics, Auckland, New Zealand) and obtained images were stored in uncompressed tagged image file format (tiff). Data processing and analysis was accomplished using Matlab software (The Math Works, Inc., Natick, Mass.).

[4] = target: T1, pre-activated MMP-2 (gelatinase A), Chemicon assay (UniProt P08253 110-660, limits assumed); experiment: cell-based or functional assay
T1 sequence (looked up): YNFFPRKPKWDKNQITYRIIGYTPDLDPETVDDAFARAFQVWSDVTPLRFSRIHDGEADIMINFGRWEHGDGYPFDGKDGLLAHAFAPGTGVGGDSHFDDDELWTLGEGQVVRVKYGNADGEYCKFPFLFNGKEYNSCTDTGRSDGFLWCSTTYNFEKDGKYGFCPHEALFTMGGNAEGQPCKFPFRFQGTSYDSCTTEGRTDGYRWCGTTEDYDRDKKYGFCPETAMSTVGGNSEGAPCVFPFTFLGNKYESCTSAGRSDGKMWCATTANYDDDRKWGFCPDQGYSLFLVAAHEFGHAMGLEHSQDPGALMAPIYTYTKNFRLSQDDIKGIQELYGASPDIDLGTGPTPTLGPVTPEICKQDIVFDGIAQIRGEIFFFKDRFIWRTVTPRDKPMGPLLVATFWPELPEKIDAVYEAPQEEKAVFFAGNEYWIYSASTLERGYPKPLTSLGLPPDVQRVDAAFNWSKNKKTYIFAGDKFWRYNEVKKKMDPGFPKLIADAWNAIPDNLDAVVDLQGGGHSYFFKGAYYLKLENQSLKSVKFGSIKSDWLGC

[5] = target: T2, αvβ3 integrin (on KS1767 cells) (UniProt P06756 31-1048; P05106 27-788); experiment: control in the KS1767 cell adhesion assay on vitronectin-coated wells (FIG. 31)
T2 construct: whole, on cells; also called integrin αvβ3
Experimental: A Cell Adhesion Assay was additionally performed. KS1767 cells were seeded in DMEM/F12 culture medium supplemented with 10% fetal bovine serum for 24 hr. Cells (1×10^5) with different concentrations of c(KRGDf; SEQ ID NO. 3) or Cy5.5-c(KRGDf; SEQ ID NO. 3) were added to vitronectin-coated microliter wells under serum-free conditions and incubated at 37° C. for 1 hr. After washing steps, the bound cells were stained with 5% crystal violet, followed by addition of 0.1M HCl to each well. The concentrations of crystal violet were determined by UV/V is absorption at 627 nm. $IC50$ values were estimated from the dose-activity curves.

T2 sequence (P06756 31-1048, chain 1 of 2): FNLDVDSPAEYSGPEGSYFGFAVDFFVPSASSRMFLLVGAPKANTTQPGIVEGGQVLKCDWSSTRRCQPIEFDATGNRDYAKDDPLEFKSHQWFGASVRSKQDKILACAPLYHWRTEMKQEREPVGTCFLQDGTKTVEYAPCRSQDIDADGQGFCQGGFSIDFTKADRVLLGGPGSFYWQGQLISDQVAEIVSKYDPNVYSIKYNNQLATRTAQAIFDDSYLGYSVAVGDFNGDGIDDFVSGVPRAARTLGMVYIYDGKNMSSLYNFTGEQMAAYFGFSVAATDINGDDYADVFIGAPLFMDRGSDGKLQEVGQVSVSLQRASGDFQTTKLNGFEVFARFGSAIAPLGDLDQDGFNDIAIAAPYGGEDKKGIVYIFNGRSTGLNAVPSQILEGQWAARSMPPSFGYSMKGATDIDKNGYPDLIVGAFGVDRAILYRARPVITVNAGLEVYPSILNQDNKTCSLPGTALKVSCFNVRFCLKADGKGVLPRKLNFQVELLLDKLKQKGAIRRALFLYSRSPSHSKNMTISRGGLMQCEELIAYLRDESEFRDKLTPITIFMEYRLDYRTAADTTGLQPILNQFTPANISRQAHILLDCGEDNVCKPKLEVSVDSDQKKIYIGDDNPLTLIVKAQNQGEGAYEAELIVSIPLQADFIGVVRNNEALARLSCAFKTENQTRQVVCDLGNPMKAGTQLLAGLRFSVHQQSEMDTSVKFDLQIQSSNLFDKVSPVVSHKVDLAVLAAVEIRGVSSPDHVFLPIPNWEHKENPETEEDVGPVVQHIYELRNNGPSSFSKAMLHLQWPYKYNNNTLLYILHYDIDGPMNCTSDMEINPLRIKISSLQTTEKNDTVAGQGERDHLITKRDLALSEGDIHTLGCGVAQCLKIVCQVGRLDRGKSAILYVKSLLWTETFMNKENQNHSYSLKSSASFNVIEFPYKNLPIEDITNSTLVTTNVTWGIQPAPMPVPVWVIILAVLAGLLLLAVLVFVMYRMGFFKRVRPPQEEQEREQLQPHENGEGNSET
T2 sequence (P05106 27-788, chain 2 of 2): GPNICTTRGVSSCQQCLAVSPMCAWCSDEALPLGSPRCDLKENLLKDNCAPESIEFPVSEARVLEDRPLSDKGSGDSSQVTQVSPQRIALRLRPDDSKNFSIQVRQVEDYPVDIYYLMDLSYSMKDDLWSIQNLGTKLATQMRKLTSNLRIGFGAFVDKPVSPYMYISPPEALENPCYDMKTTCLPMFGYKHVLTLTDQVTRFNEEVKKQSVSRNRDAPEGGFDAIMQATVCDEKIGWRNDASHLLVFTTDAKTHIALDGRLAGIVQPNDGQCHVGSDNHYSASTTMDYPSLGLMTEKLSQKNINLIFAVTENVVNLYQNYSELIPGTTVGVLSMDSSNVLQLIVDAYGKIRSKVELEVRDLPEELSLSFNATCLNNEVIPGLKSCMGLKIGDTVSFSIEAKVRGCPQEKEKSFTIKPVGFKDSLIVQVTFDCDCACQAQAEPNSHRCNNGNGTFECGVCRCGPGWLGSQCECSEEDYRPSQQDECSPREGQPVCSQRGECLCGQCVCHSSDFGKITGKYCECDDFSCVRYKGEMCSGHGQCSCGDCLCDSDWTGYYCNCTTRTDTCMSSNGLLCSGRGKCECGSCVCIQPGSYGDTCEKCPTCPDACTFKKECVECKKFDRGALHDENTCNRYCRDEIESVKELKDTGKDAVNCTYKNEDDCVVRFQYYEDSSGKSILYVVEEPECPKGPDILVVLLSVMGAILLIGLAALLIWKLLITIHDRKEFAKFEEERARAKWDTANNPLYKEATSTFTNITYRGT

Cy5.5 [reference compound]
Tumor targeting / uptake in NIR image [1]: almost no optical activity uptake
Binding to tumor cells [2]: did not display significant binding
Fluorescent signal in tumor [3]: minimal fluorescence

B1: c(KAHWGFTLD)NH2 (SEQ ID NO. 10) (side chain-to-side chain linkage) (peptide)
peptide: KAHWGFTLD
HELM: PEPTIDE1{K.A.H.W.G.F.T.L.D.[am]}$PEPTIDE1,PEPTIDE1,1:R3-9:R3$$$V2.0; N-terminus assumed
SMILES: CC(C)C[C@@H]1NC(=O)[C@H]([C@@H](C)O)NC(=O)[C@H](Cc2ccccc2)NC(=O)CNC(=O)[C@H](Cc2c[nH]c3ccccc23)NC(=O)[C@H](Cc2c[nH]cn2)NC(=O)[C@H](C)NC(=O)[C@@H](N)CCCCNC(=O)C[C@@H](C(N)=O)NC1=O
IC50 of MMP-2 enzyme inhibition (biotinylated gelatinase substrate cleavage assay) [4]: 5.5 µM

Ac-ACNGRCG (bridge 2-6; also: kind of ring closure not given here, also called control cyclic pentapeptide) [Ac-A-c(CNGRC)-G]
binding result [5]: no binding

Source: patent publication US7371364B2, “Cyclic peptide and imaging compound compositions and uses for targeted imaging and therapy” (Board of Regents, The University of Texas System, priority 2003, dated 2008)
